Reference: publication PMC5584980, “Deciphering HLA-I motifs across HLA peptidomes improves neo-antigen predictions and identifies allostery regulating HLA specificity” (PLoS Computational Biology, 2017)

Tested on: HLA-B14:02 wt
Assay: Binding stability assay, refolded HLA-I/peptide complex, ELISA
Set-up: species or system human
Description: W97R mutation was introduced into HLA-B14:02 wt by overlap extension PCR and confirmed by DNA sequencing. BL21(DE3)pLys bacterial cells were used to produce HLA-B14:02 wt and W97R as inclusion bodies. Four peptides with histidine or arginine at P2 (A[H/R]TKPRPAL, G[H/R]YDRSKSL, A[H/R]FAKSISL, H[H/R]FEKAVTL) were synthesized at the Peptide Facility (UNIL, Lausanne) with free N and C-termini (1mg of each peptide, > 80% purity). Peptides with histidine at P2 come from our HLA peptidomics data and were assigned to HLA-B15:18 by our mixture model algorithm. Based on our analysis of HLA sequence and structure, peptides with histidine at P2 are predicted to interact with HLA-B14:02 W97R, while peptides with arginine at P2 are predicted to bind better HLA-B14:02 wt.
Synthetic peptides were incubated separately with denaturated […] mutant refolded by dilution in the presence of biotinylated beta-2 microglobulin proteins at temperature T = 4°C for 48 hours. […] Negative controls consist of absence of peptides. koff were determined by fitting exponential curves to the light intensity values obtained by ELISA at different time points. […] For two peptides showing exceptionally high binding stability, only lower bounds on half-lives could be determined (dashed lines in Fig 5D).

Sequence: AHTKPRPAL [synthetic HLA-B15:18 ligand from HLA peptidomics data, histidine at P2, free N and C-termini]
- binding of the peptide: fully abolished
